Reference: patent US20250270222A1, “AP2 ASSOCIATED KINASE 1 INHIBITORS AND USES THEREOF” (Satellos Bioscience Inc., priority 2023, published 2025)

How the values were obtained:
[1] = molecular target: AAK1 (amino acids T27-A365) (Homo sapiens (Human), UniProt Q2M2I8); assay: AAK1 pSENs assay; type: biochemical; conditions: ratio of AAK1 pSENs activity to GAK pSENs activity
Procedure: (§1) The recombinant proteins were independently expressed in Esherichia coli BL21(DE3) cells cultured in Luria-Bertani (LB) medium until OD600 reached 0.6-0.8, then cooled to 15° C., and supplemented with 0.5 mM isopropyl 1-thio-D-galactopyranoside (IPTG) induce protein expression 16 h. Cells were harvested and resuspended in lysis buffer (50 mM HEPES pH 7.5, 500 mM NaCl, 5 mM imidazole, 5% glycerol, 0.5 mM Tris (2-carboxyethyl) phosphine (TCEP), cOmplete Protease Inhibitor Tablet (Roche)) and lysed by microfluidics high pressure homogenizer (UH-06, Union-Biotech). Proteins were purified using Ni-Affinity chromatography (His FF column, Bestchrom) and eluted stepwise in binding buffer with 20-300 mM imidazole. Removal of the hexahistidine tag was performed at 4° C. overnight using recombinant TEV protease and reacted with BirA to obtain the corresponding biotinylated-AAK1. BIKE or GAK proteins. Further separated in the reverse Strep column (Strep-Tactin® XT, IBA). The Biotin elution sample was collected containing untagged biotinylated protein was then purified by Ion-exchange chromatography (Mono Q 10/100 GL, Cytiva) and Size-exclusion chromatography (HiLoad 16/600 Superdex 200 pg, Cytiva). The pure protein was stored in a storage buffer 50 mM HEPES (pH 7.5), 300 mM NaCl, 5% glycerol at −80° C. Protein were characterized by SDS-PAGE. LC-MS and aSEC.
This example describes one illustrative method for determining the IC50 of the compounds of the present invention against AAK1 (amino acids T27-A365). AAK1 protein was dissolved at 20 nM in 1× enzyme solution (50 mM HEPES pH7.5, 10 mM MgCl2, 1 mM DTT, 1% glycerol, 0.5 mM EGTA, 0.01% Briji35, 0.02% BSA) and 12.5 ul was incubated with 250 nl DMSO or 250 nl compound in DMSO at 25° C. for 15 min. The reaction was started by addition of 12.5 ul of 30 uM AQT0759 (Assayquant, CSKS-AQT0759B) and 70 uM ATP which were diluted in 1× substrate dilution buffer (50 mM HEPES pH7.5, 10 mM MgCl2, 1 mM DTT, 1% glycerol, 0.5 mM EGTA, 0.01% Briji35).

[2] = molecular target: GAK (amino acids Q25-N335) (Homo sapiens (Human), UniProt O14976); assay: GAK pSENs assay; type: biochemical
Chain of GAK (amino acids Q25-N335) (O14976 25-335): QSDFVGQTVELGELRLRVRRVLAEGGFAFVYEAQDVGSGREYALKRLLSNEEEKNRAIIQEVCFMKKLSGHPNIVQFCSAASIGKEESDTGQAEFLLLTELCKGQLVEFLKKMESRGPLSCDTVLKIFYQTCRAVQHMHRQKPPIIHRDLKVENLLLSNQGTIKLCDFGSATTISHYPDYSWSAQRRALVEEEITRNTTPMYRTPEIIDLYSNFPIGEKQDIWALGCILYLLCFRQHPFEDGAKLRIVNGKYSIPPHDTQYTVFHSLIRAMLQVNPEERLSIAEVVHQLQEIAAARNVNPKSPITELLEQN
Procedure: as §1
This example describes one illustrative method for determining the IC50 of the compounds of the present invention against GAK (amino acids Q25-N335).

Chain of AAK1 (amino acids T27-A365) (Q2M2I8 27-365): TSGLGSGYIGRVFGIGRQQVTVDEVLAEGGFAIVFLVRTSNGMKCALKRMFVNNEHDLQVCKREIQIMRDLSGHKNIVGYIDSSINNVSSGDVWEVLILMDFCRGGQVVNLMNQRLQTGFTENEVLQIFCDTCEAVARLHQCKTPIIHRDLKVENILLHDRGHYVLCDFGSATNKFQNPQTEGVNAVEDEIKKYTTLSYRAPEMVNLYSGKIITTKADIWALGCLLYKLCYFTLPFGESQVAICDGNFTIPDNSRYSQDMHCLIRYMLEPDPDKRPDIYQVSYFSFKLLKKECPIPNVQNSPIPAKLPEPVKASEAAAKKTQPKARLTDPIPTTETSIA

Row | SMILES | AAK1:GAK pSENs Selectivity [1] | IC50 [2] [µM]
1 | CC(C)Oc1ncccc1-c1cnn2ccc(N3CCN(C(=O)OC4(C)COC4)CC3)nc12 [Compound I-1, (3-methyloxetan-3-yl)-4-[3-(2-isopropoxy-3-pyridyl)pyrazolo[1,5-a]pyrimidin-5-yl]piperazine-1-carboxylate] | A (A: ≤0.015) | > 1.5
2 | CC1(OC(=O)N2CCN(c3ccn4ncc(-c5cccnc5OC5CC5)c4n3)CC2)COC1 [Compound I-2, (3-methyloxetan-3-yl)-4-[3-[2-(cyclopropoxy)-3-pyridyl]pyrazolo[1,5-a]pyrimidin-5-yl]piperazine-1-carboxylate] | A (A: ≤0.015) | > 1.5
3 | COc1ncccc1-c1cnn2ccc(N3CCN(C(=O)OC4CNC(=O)C4)CC3)nc12 (centres unmarked) [Compound I-6, (5-Oxopyrrolidin-3-yl) 4-[3-(2-methoxy-3-pyridyl)pyrazolo[1,5-a]pyrimidin-5-yl]piperazine-1-carboxylate] | A (A: ≤0.015) | > 1.5
4 | O=C1C[C@@H](OC(=O)N2CCN(c3ccn4ncc(-c5cccnc5OC5CC5)c4n3)CC2)CN1 [Compound I-10, [(3R)-5-Oxopyrrolidin-3-yl]-4-[3-[2-(cyclopropoxy)-3-pyridyl]pyrazolo[1,5-a]pyrimidin-5-yl]piperazine-1-carboxylate] | A (A: ≤0.015) | > 1.5
5 | O=C1C[C@H](OC(=O)N2CCN(c3ccn4ncc(-c5cccnc5OC5CC5)c4n3)CC2)CN1 [Compound I-11, [(3S)-5-Oxopyrrolidin-3-yl]-4-[3-[2-(cyclopropoxy)-3-pyridyl]pyrazolo[1,5-a]pyrimidin-5-yl]piperazine-1-carboxylate hydrochloric acid] | A (A: ≤0.015) | > 1.5
6 | CC1(OC(=O)N2CCN(c3ccn4ncc(-c5cccnc5OC5COC5)c4n3)CC2)COC1 [Compound I-18, (3-Methyloxetan-3-yl)-4-[3-[2-(oxetan-3-yloxy)-3-pyridyl]pyrazolo[1,5-a]pyrimidin-5-yl]piperazine-1-carboxylate] | A (A: ≤0.015) | > 1.5
7 | O=C1C[C@H](OC(=O)N2CCN(c3ccn4ncc(-c5cccnc5OC5COC5)c4n3)CC2)CN1 [Compound I-25, [(3S)-5-Oxopyrrolidin-3-yl]4-[3-[2-(oxetan-3-yloxy)-3-pyridyl]pyrazolo[1,5-a]pyrimidin-5-yl]piperazine-1-carboxylate] | A (A: ≤0.015) | > 1.5
8 | CC(C)Oc1ncccc1-c1cnn2ccc(N3CCN(C(=O)O[C@@H]4CNC(=O)C4)CC3)nc12 [Compound I-26, [(3S)-5-Oxopyrrolidin-3-yl]-4-[3-(2-isopropoxy-3-pyridyl)pyrazolo[1,5-a]pyrimidin-5-yl]piperazine-1-carboxylate] | A (A: ≤0.015) | > 1.5
9 | O=C(O[C@H]1CO[C@H]2OCC[C@H]21)N1CCN(c2ccn3ncc(-c4cccnc4OC4CC4)c3n2)CC1 [Compound I-27, [(3aS,4R,6aR)-2,3,3a, 4,5,6a-hexahydrofuro[2,3-b]furan-4-yl]-4-[3-[2-(cyclopropoxy)-3-pyridyl]pyrazolo[1,5-a]pyrimidin-5-yl]piperazine-1-carboxylate] | A (A: ≤0.015) | > 1.5
10 | CC(C)(C)OC(=O)N1CCC(N2C[C@@H](OC(=O)N3CCN(c4ccn5ncc(-c6cccnc6OC6CC6)c5n4)CC3)CC2=O)CC1 [Compound I-30, [(3S)-1-(1-tert-Butoxycarbonyl-4-piperidyl)-5-oxo-pyrrolidin-3-yl]4-[3-[2-(cyclopropoxy)-3-pyridyl]pyrazolo[1,5-a]pyrimidin-5-yl]piperazine-1-carboxylate] | A (A: ≤0.015) | > 1.5
11 | O=C(O[C@H]1CC(=O)N(C2CCNCC2)C1)N1CCN(c2ccn3ncc(-c4cccnc4OC4CC4)c3n2)CC1 [Compound I-32, [(3S)-5-Oxo-1-(4-piperidyl)pyrrolidin-3-yl]4-[3-[2-(cyclopropoxy)-3-pyridyl]pyrazolo[1,5-a]pyrimidin-5-yl]piperazine-1-carboxylate] | A (A: ≤0.015) | > 1.5
12 | CN1C[C@@H](OC(=O)N2CCN(c3ccn4ncc(-c5cccnc5OC5CC5)c4n3)CC2)CC1=O [Compound I-34] | A (A: ≤0.015) | > 1.5
13 | CNCCN1C[C@@H](OC(=O)N2CCN(c3ccn4ncc(-c5cccnc5OC5CC5)c4n3)CC2)CC1=O [Compound I-36, (S)-1-(2-(methylamino)ethyl)-5-(oxopyrrolidin-3-yl)-4-(3-(2-cyclopropoxypyridin-3-yl)pyrazolo[1,5-a]pyrimidin-5-yl)piperazine-1-carboxylate] | A (A: ≤0.015) | > 1.5
14 | [2H]C1([2H])N(C(=O)O[C@H]2CC(=O)N(C)C2)C([2H])([2H])C([2H])([2H])N(c2ccn3ncc(-c4cccnc4OC4CC4)c3n2)C1([2H])[2H] [Compound I-73, [(3S)-1-methyl-5-oxo-pyrrolidin-3-yl]-4-[3-[2-(cyclopropoxy)-3-pyridyl]pyrazolo[1,5-a]pyrimidin-5-yl]-2,2,3,3,5,5,6,6-octadeuterio-piperazine-1-carboxylate] |  | > 1.5
15 | CN1C[C@@H](OC(=O)N2CCN(c3ccn4ncc(-c5cccnc5O)c4n3)CC2)CC1=O [Compound I-98, [(3S)-1-methyl-5-oxo-pyrrolidin-3-yl]-4-[3-(2-hydroxy-3-pyridyl)pyrazolo[1,5-a]pyrimidin-5-yl]piperazine-1-carboxylate] | C (C: 0.076-0.15) | 
16 | CC(C)(C)OC(=O)N1CCN(c2ccn3ncc(Cl)c3n2)CC1 [Compound I-100, tert-butyl 4-(3-chloropyrazolo[1,5-a]pyrimidin-5-yl)piperazine-1-carboxylate] | D (D: 0.16-1.00) | 
17 | CC(C)(C)OC(=O)N1CCN(c2ccn3ncc(-c4cccnc4O)c3n2)CC1 [Compound I-102, tert-butyl 4-[3-(2-hydroxy-3-pyridyl)pyrazolo[1,5-a]pyrimidin-5-yl]piperazine-1-carboxylate] | A (A: ≤0.015) | 
18 | Brc1cnn2ccc(N3CCNCC3)nc12 [Compound I-103, 3-bromo-5-piperazin-1-yl-pyrazolo[1,5-a]pyrimidine] | E (E: >1.00) | 
19 | Clc1cnn2ccc(N3CCNCC3)nc12 [Compound I-104, 3-chloro-5-piperazin-1-yl-pyrazolo[1,5-a]pyrimidine] | E (E: >1.00) | 
20 | c1cc2nc(N3CCNCC3)ccn2n1 [Compound I-105, 5-piperazin-1-ylpyrazolo[1,5-a]pyrimidine] | E (E: >1.00) | 
21 | Oc1ncccc1-c1cnn2ccc(N3CCNCC3)nc12 [Compound I-106, 3-(5-piperazin-1-ylpyrazolo[1,5-a]pyrimidin-3-yl)pyridin-2-ol] | C (C: 0.076-0.15) | 
22 | [2H]C([2H])([2H])N1C[C@@H](OC(=O)N2CCN(c3nc4c(-c5cc(OC)cnc5OC5CC5)cnn4cc3F)CC2)CC1=O [Compound I-117, [(3S)-5-oxo-1-(trideuteriomethyl)pyrrolidin-3-yl]4-[3-[2-(cyclopropoxy)-5-methoxy-3-pyridyl]-6-fluoro-pyrazolo[1,5-a]pyrimidin-5-yl]piperazine-1-carboxylate] | A (A: ≤0.015) | 
23 | CC(C)(C)OC(=O)NCCNc1nc2c(-c3cccnc3OC3CC3)cnn2cc1F [Compound I-124, tert-butyl N-[2-[[3-[2-(cyclopropoxy)-3-pyridyl]-6-fluoro-pyrazolo[1,5-a]pyrimidin-5-yl]amino]ethyl]carbamate] | C (C: 0.076-0.15) | 
24 | CC(C)(C)OC(=O)NCCNc1ccc2ncc(-c3cccnc3OC3CC3)n2n1 [Compound I-129, tert-butyl N-[2-[[3-[2-(cyclopropoxy)-3-pyridyl]imidazo[1,2-b]pyridazin-6-yl]amino]ethyl]carbamate] | C (C: 0.076-0.15) | 
25 | COc1ncccc1-c1cnn2ccc(N3CCN(C(=O)OC4(C)COC4)CC3)nc12 [RC-1, (3-methyloxetan-3-yl)-4-[3-(2-methoxy-3-pyridyl)pyrazolo[1,5-a]pyrimidin-5-yl]piperazine-1-carboxylate, reference compound] | 0.0083 | 
